According to US4661487A (priority 1984, dated 1987):
Where “and” joins values, the source holds several entries; their conditions need not be identical. Identical values can stand only once. Counter-ions that a name gives are not always drawn.

Tests used:
[1] = test system: spontaneously hypertensive rats; assay: Heart rate-modifying action in spontaneously hypertensive rats; assay type: in vivo, spontaneously hypertensive rats (SHR rats)
Procedure: (§1) The substances were administered orally with a probang to fasting spontaneously hypertensive rats. The animals were fasted 17 hours before the start of the experiment. All the substances were dissolved in 1% strength carboxymethylcellulose (MH 300), and the administration volume was 10 ml/kg. The starting values of the blood pressure and heart rate were recorded directly before the administration. The action of the substance was measured 1, 2, 4, 7 and 24 hours after the administration. The measurement was performed non-invasively with a W+W Recorder 8002, it being possible to measure the systolic blood pressure and the heart rate. The animals were offered food again 4 hours after administration of the substance. The values can be seen from Table 1, page 5. […] The experiment was carried out by the same method as in Example 1, and the values can be seen in Table 2.

[2] = test system: spontaneously hypertensive rats; assay: Hypotensive action (systolic blood pressure, W+W Recorder 8002) in spontaneously hypertensive rats; assay type: in vivo, spontaneously hypertensive rats (SHR rats)
Procedure: as §1

[3] = test system: collagen-induced aggregation of human platelets; assay: Inhibition of collagen-induced aggregation of human platelets in vitro (method of Born, platelet-rich human plasma); assay type: cell-based
Procedure: Inhibition of the collagen-induced aggregation of human platelets by the combination of 4,5-dihydro-6-[4-(1-imidazolyl)-thien-2-yl]-5-methyl-3(2H)-pyridazinone hydrochloride (D) with lofexidine (A).
The inhibition of collagen-induced platelet aggregation in vitro was carried out by the method of Born (Nature, 194, 927-929 (1962)) on platelet-rich human plasma with 4,5-dihydro-6-[4-(1-imidazolyl)-thien-2-yl]-5-methyl-3(2H)-pyridazinone hydrochloride (D), lofexidine (A) and with mixtures of A and D.
In each case the mean value of 4 independent determinations has been given. In the investigations of the mixtures, the concentration of A was constant at 1×10^-5 mole/l.

[4] = peripheral vasodilation; cited from earlier work

## CC(Oc1c(Cl)cccc1Cl)C1=NCCN1.Cl (racemic) [Substance A, (±)-2-[1-(2,6-dichlorophenoxy)-ethyl]-1,3-diazacyclopent-2-ene hydrochloride]
[1]; 0.1 mg/kg p.o., 1 hour
  Heart rate, Δ after administration of the substance: +10 ± 13 beats/minute
[1]; 0.1 mg/kg p.o., 2 hours
  Heart rate, Δ after administration of the substance: +37 ± 27 beats/minute
[1]; 0.1 mg/kg p.o., 4 hours
  Heart rate, Δ after administration of the substance: +12 ± 12 beats/minute
[1]; 0.1 mg/kg p.o., 7 hours
  Heart rate, Δ after administration of the substance: -14 ± 12 beats/minute
[1]; 1.0 mg/kg p.o., 1 hour, hydrochloride
  Heart rate, Δ after administration of the substance: -22 ± 18 beats/minute and -22 ± 8 beats/minute
[1]; 1.0 mg/kg p.o., 2 hours
  Heart rate, Δ after administration of the substance: -6 ± 13 beats/minute
[1]; 1.0 mg/kg p.o., 4 hours
  Heart rate, Δ after administration of the substance: -2 ± 15 beats/minute
[1]; 1.0 mg/kg p.o., 7 hours
  Heart rate, Δ after administration of the substance: -10 ± 16 beats/minute
[2]; 0.1 mg/kg p.o., 1 hour
  Systolic blood pressure, Δ after administration of the substance: -18.8 ± 16.6 mmHg
[2]; 0.1 mg/kg p.o., 2 hours
  Systolic blood pressure, Δ after administration of the substance: -4.0 ± 18.6 mmHg
[2]; 0.1 mg/kg p.o., 4 hours
  Systolic blood pressure, Δ after administration of the substance: -11.8 ± 23.2 mmHg
[2]; 0.1 mg/kg p.o., 7 hours
  Systolic blood pressure, Δ after administration of the substance: -10.8 ± 26.9 mmHg
[2]; 1.0 mg/kg p.o., 1 hour
  Systolic blood pressure, Δ after administration of the substance: -28.4 ± 13.1 mmHg
[2]; 1.0 mg/kg p.o., 2 hours
  Systolic blood pressure, Δ after administration of the substance: -22.8 ± 11.8 mmHg
[2]; 1.0 mg/kg p.o., 4 hours
  Systolic blood pressure, Δ after administration of the substance: -23.6 ± 15.5 mmHg
[2]; 1.0 mg/kg p.o., 7 hours
  Systolic blood pressure, Δ after administration of the substance: -22.2 ± 17.4 mmHg
[3]; A at 1 × 10^-5 mole/l, D 0, mean of 4 determinations
  % inhibition of collagen-induced platelet aggregation: 3%

## CC1CC(=O)NN=C1c1ccc(-n2ccnc2)cc1 (stereo not drawn) [Substance B, 4,5-dihydro-6-[4-(1-imidazolyl)-phenyl]-5-methyl-3(2H)-pyridazinone]
[1]; 10.0 mg/kg p.o., 1 hour
  Heart rate, Δ after administration of the substance: +113 ± 14 beats/minute
[1]; 10.0 mg/kg p.o., 2 hours
  Heart rate, Δ after administration of the substance: +108 ± 10 beats/minute
[1]; 10.0 mg/kg p.o., 4 hours
  Heart rate, Δ after administration of the substance: +85 ± 21 beats/minute
[1]; 10.0 mg/kg p.o., 7 hours
  Heart rate, Δ after administration of the substance: +129 ± 24 beats/minute
[1]; 10.0 mg/kg p.o., 24 hours
  Heart rate, Δ after administration of the substance: +16 ± 16 beats/minute
[2]; 10.0 mg/kg p.o., 1 hour
  Systolic blood pressure, Δ after administration of the substance: -95.4 ± 3.4 mmHg
[2]; 10.0 mg/kg p.o., 2 hours
  Systolic blood pressure, Δ after administration of the substance: -97.2 ± 4.6 mmHg
[2]; 10.0 mg/kg p.o., 4 hours
  Systolic blood pressure, Δ after administration of the substance: -98.4 ± 5.6 mmHg
[2]; 10.0 mg/kg p.o., 7 hours
  Systolic blood pressure, Δ after administration of the substance: -93.0 ± 5.6 mmHg
[2]; 10.0 mg/kg p.o., 24 hours
  Systolic blood pressure, Δ after administration of the substance: -35.8 ± 6.6 mmHg

## CC1CC(=O)NN=C1c1cc(-n2ccnc2)cs1 (stereo not drawn) [Substance C, 4,5-dihydro-6-[4-(1-imidazolyl)-thien-2-yl]-5-methyl-3(2H)-pyridazinone]
[1]; 10.0 mg/kg p.o., 1 hour
  Heart rate, Δ after administration of the substance: +104 ± 21 beats/minute
[1]; 10.0 mg/kg p.o., 2 hours
  Heart rate, Δ after administration of the substance: +91 ± 10 beats/minute
[1]; 10.0 mg/kg p.o., 4 hours
  Heart rate, Δ after administration of the substance: +70 ± 12 beats/minute
[1]; 10.0 mg/kg p.o., 7 hours
  Heart rate, Δ after administration of the substance: +36 ± 13 beats/minute
[2]; 10.0 mg/kg p.o., 1 hour
  Systolic blood pressure, Δ after administration of the substance: -48.1 ± 16.2 mmHg
[2]; 10.0 mg/kg p.o., 2 hours
  Systolic blood pressure, Δ after administration of the substance: -66.2 9.9 mmHg
[2]; 10.0 mg/kg p.o., 4 hours
  Systolic blood pressure, Δ after administration of the substance: -93.9 ± 6.8 mmHg
[2]; 10.0 mg/kg p.o., 7 hours
  Systolic blood pressure, Δ after administration of the substance: -98.9 ± 9.1 mmHg

## CC1CC(=O)NN=C1c1cc(-n2ccnc2)cs1 (stereo not drawn) [Substance D, 4,5-dihydro-6-[4-(1-imidazolyl)-thien-2-yl]-5-methyl-3(2H)-pyridazinone hydrochloride]
[3]; Homo sapiens, Platelet, read-out: concentration for a half-maximum inhibition (IC50) of the collagen-induced platelet aggregation
  IC50: 0.046 µM

## NNc1nnc(NN)c2ccccc12 [dihydralazine]
[4]
  side effect in hypertension therapy: reflex tachycardia

## NNc1nncc2ccccc12 [hydralazine]
[4]
  side effect in hypertension therapy: reflex tachycardia

## Nc1cc(N2CCCCC2)nc(N)[n+]1[O-] [minoxidil]
[4]
  side effect in hypertension therapy: reflex tachycardia
